Measured values published in patent US6730480B1, “Sphingosine kinase enzyme” (Johnson & Johnson Pharmaceutical Research and Development …, priority 1999, dated 2004).
“Also recorded” adds a separate entry of the source. Values belong to the compound of their own block, whether it stands above or below them.

Legend:
[1] = target: T1, native sphingosine kinase (human placenta SK1) (Homo sapiens, UniProt Q9NYA1); assay: Sphingosine kinase enzyme assay with native SK purified from human placenta; format: biochemical; settings: for Metal ion requirement (sphingosine kinase activity): metal ions or EDTA at 10 mM; for Substrate specificity (phosphorylation by the enzyme): substrates at 100 μM in 0.25% Triton X-100, relative to sphingosine; for kcat: Triton X-100 mixed micelles; for Km / Km (mol %): substrate kinetics; for Km (mol %): mol % of Triton X-100 (0.25% w/v); for Effect of phospholipid on sphingosine kinase activity: phospholipid at 10 mol% of Triton X-100
T1 construct: from tissue; host or cells: human placenta
T1 sequence (Q9NYA1 whole entry): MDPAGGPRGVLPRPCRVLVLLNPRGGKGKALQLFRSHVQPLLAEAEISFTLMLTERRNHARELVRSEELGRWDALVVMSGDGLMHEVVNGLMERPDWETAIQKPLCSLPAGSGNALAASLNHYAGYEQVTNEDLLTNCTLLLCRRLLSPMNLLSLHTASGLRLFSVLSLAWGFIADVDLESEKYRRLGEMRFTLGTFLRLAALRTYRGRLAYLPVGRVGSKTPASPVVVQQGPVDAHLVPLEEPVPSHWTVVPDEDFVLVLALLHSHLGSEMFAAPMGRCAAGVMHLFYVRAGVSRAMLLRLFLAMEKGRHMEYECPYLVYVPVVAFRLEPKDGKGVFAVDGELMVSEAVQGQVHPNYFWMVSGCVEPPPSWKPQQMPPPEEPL
Experimental: Sphingosine kinase activity was routinely determined using D-erythro-sphingosine and [γ^32P]ATP as substrates, essentially as previously described (Olivera et al., 1998) with some modifications. […] Reactions were terminated and sphingosine-1-phosphate extracted by the addition of 700 μl of chloroform/methanol/HCl (100:200:1. v/v), followed by vigorous mixing, addition of 200 μp of chloroform and 200 μl of 2 M KCl, and phase separation by centrifugation. […] Sunnyvale, Calif.). One unit (U) of activity is defined as 1pmol of S1P formed per minute. […] Similarly, thermal stabilities were determined by assaying the residual activity after pre-incubation of the enzymes at various temperatures (4-80° C.) for 30 min at pH 7.4 (50 mM Tris/HCl containing 10% glycerol, 0.5 M NaCl and 0.05% Triton X-100). Substrate kinetics were analysed using Michaelis-Menten kinetics with a weighted non-linear regression program (Easterby, 1996). […] In both cases the data were analysed by non-linear regression. The effect of metal ions on the activity of the native and recombinant sphingosine kinases were determined by assaying the activity under standard conditions in the presence of various metal ions or EDTA at 10 mM. […] PC, phosphatidylcholine; PS phosphatidylserine; PE, […]; PI, phosphatidylinositol.

[2] = target: T2, recombinant human sphingosine kinase (Homo sapiens, UniProt Q9NYA1); assay: Sphingosine kinase enzyme assay with recombinant human SK expressed in E. coli; format: biochemical; settings: for Metal ion requirement (sphingosine kinase activity): metal ions or EDTA at 10 mM; for Substrate specificity (phosphorylation by the enzyme): substrates at 100 μM in 0.25% Triton X-100, relative to sphingosine; for kcat: Triton X-100 mixed micelles; for Km / Km (mol %): substrate kinetics; for Km (mol %): mol % of Triton X-100 (0.25% w/v); for Effect of phospholipid on sphingosine kinase activity: phospholipid at 10 mol% of Triton X-100
T2 construct: The full length SPHK cDNA cloned into pGEX4T2 was transformed into E. coli BL21; GST (N, cleaved yes); made in house; host or cells: E. coli BL21
T2 sequence (Q9NYA1 whole entry): as above
Experimental: Sphingosine kinase activity was routinely determined using D-erythro-sphingosine and [γ^32P]ATP as substrates, essentially as previously described (Olivera et al., 1998) with some modifications. […] Reactions were terminated and sphingosine-1-phosphate extracted by the addition of 700 μl of chloroform/methanol/HCl (100:200:1. v/v), followed by vigorous mixing, addition of 200 μp of chloroform and 200 μl of 2 M KCl, and phase separation by centrifugation. […] Sunnyvale, Calif.). One unit (U) of activity is defined as 1pmol of S1P formed per minute. The full length SPHK cDNA cloned into pGEX4[…]. coli BL21. Overnight cultures (100 ml) of transformed isolates were grown with shaking (200 rpm) at 30° C. in Superbroth (20 g/L glucose, 35 g/L tryptone, 20 g/L yeast extract, 5 g/L NaCl, pH 7.5) medium containing ampicillin (100 mg/L). The cultures were diluted 1:20 in fresh medium and grown at 30° C. with shaking to an OD600 of 0.6-0.7. Expression of the glutathione-s-transferase (GST)-coupled sphingosine kinase (GST-SK) was then induced by addition of 0.1 mM isopropyl-β-D-thiogalactoside and further incubation of the cultures at 30° C. for 3 h. After this time the bacterial cells were then harvested by centrifugation at 6,000 g for 20 min at 4° C. and resuspended in 20 ml of buffer B containing 250 mM NaCl. the cells were then lysed with lysozyme at a final concentration of 0.3 mg/ml for 15 min at 25° C. followed by sonication, consisting of three cycles of 20 s ultrasonic pulses followed by one minute cooling. The lysate was then clarified by centrifugation at 50,000 g for 45 min at 4° C., followed by filtrating through 0.22 μm filters. To be filtered supernatant was then incubated with 0.2 volumes of 50% (w/v) glutathione-Sepharose 4B (Pharmacia) that was washed and pro-equilibrated with buffer B, for 60 min at 4° C. with constant mixing. After this time the mixture was poured into a glass chromatography column (10 mm diam.) and the beads (with bound GST-SK) washed with 10 column volumes of buffer B at 4° C. The GST-SK was then eluted from the column in 10 ml of buffer B containing 10 mM reduced glutathione. Cleavage of the GST away from sphingosine kinase was then performed by incubation with 20 μg (30 N.I.H. units) thrombin (Pharmacia) for 3 h at 25° C. The released sphingosine kinase was then purified by application of the cleavage mix to a calmodulin-Sepharose column and then a Mono-Q anion exchange column for the purification of the sphingosine kinase from human placenta. […] Similarly, thermal stabilities were determined by assaying the residual activity after pre-incubation of the enzymes at various temperatures (4-80° C.) for 30 min at pH 7.4 (50 mM Tris/HCl containing 10% glycerol, 0.5 M NaCl and 0.05% Triton X-100). Substrate kinetics were analysed using Michaelis-Menten kinetics with a weighted non-linear regression program (Easterby, 1996). […] In both cases the data were analysed by non-linear regression. The effect of metal ions on the activity of the native and recombinant sphingosine kinases were determined by assaying the activity under standard conditions in the presence of various metal ions or EDTA at 10 mM. […] PC, phosphatidylcholine; PS phosphatidylserine; PE, […]; PI, phosphatidylinositol.

[3] = inhibitor 2 to 50 μM, mol % of Triton X-100
[4] = listed as N,N,N, -trimethylsphingosinei
[5] = ADP 0.1 to 5 mM, with respect to ATP

Metal ion requirement (sphingosine kinase activity) [1]: only very low activity | Metal ion requirement (sphingosine kinase activity) [2]: only very low activity
Compound: [Ca+2] [Ca^2+]

Inhibition of sphingosine kinase (kind of inhibition) [1]: No inhibition | Inhibition of sphingosine kinase (kind of inhibition) [2]: No inhibition
Compound: CCCCCCCCCCCCC/C=C/[C@@H](O)[C@H](CO)NC(C)=O [N-acetylsphingosine]
Substrate specificity (phosphorylation by the enzyme) [1]: not phosphorylated; also recorded: No phosphorylation | Substrate specificity (phosphorylation by the enzyme) [2]: not phosphorylated; also recorded: No phosphorylation

Compound: [Fe+2] [Fe^2+]
Metal ion requirement (sphingosine kinase activity) [1]: did not support sphingosine kinase activity | Metal ion requirement (sphingosine kinase activity) [2]: did not support sphingosine kinase activity

Compound: CCCC[C@@H](C)[C@@H](OC(=O)C[C@@H](CC(=O)O)C(=O)O)[C@H](C[C@@H](C)C[C@H](O)CCCC[C@@H](O)C[C@H](O)[C@H](C)N)OC(=O)C[C@@H](CC(=O)O)C(=O)O [Fumosin B1]
Inhibition of sphingosine kinase (kind of inhibition) [1]: No inhibition | Inhibition of sphingosine kinase (kind of inhibition) [2]: No inhibition

Substrate specificity (phosphorylation by the enzyme) [1]: Low activity | Substrate specificity (phosphorylation by the enzyme) [2]: Low activity
Compound: CCCCCCCCCCCCCC[C@@H](O)[C@@H](O)[C@@H](N)CO [phytosphingosine, Phytosphingosine]

Compound: CCCCCCCCCCCCCCC[C@@H](O)[C@@H](N)CO [Dihydrosphingosine, D-erythro-dihydrosphingosine]
kcat [1]: 35 S^−1 | Km ([1]; bulk solution concentration): 20 ± 2 µM | Km (mol %) [1]: 0.50 ± 0.05 mol % | Substrate specificity (phosphorylation by the enzyme) [1]: greatest activity | kcat [2]: 76 S^−1 | Km ([2]; bulk solution concentration): 19 ± 2 µM | Km (mol %) [2]: 0.48 ± 0.05 mol % | Substrate specificity (phosphorylation by the enzyme) [2]: greatest activity

Metal ion requirement (sphingosine kinase activity) [1]: elimated activity | Metal ion requirement (sphingosine kinase activity) [2]: elimated activity
Compound: O=C(O)CN(CCN(CC(=O)O)CC(=O)O)CC(=O)O [EDTA]

Inhibition of sphingosine kinase (kind of inhibition) [1]: competitive inhibition | Ki ([1]; bulk solution concentration): 4.6 ± 1 µM | Ki (mol %) [1, 3]: 0.12 ± 0.03 mol % | Substrate specificity (phosphorylation by the enzyme) [1]: not phosphorylated | Substrate specificity (phosphorylation by the enzyme) [1, 4]: No phosphorylation | Inhibition of sphingosine kinase (kind of inhibition) [2]: competitive inhibition | Ki ([2]; bulk solution concentration): 3.8 ± 1 µM | Ki (mol %) [2, 3]: 0.10 ± 0.02 mol % | Substrate specificity (phosphorylation by the enzyme) [2]: not phosphorylated | Substrate specificity (phosphorylation by the enzyme) [2, 4]: No phosphorylation
Compound: CCCCCCCCCCCCC/C=C/[C@@H](O)[C@H](CO)[N+](C)(C)C [N,N,N-trimethylsphingosine]

Compound: L-α-phosphatidyldethanolamine
Effect of phospholipid on sphingosine kinase activity [1]: did not result in any detectable differences | Effect of phospholipid on sphingosine kinase activity [2]: did not result in any detectable differences

Km ([1]; bulk solution concentration): 77 ± 11 µM | Km ([2]; bulk solution concentration): 86 ± 12 µM
Compound: Nc1ncnc2c1ncn2[C@@H]1O[C@H](COP(=O)(O)OP(=O)(O)OP(=O)(O)O)[C@@H](O)[C@H]1O [ATP]

Compound: CCCCCCCCCCCCCCC[C@H](O)[C@@H](N)CO (racemic) [DL-threo-dihydrosphingosine]
Inhibition of sphingosine kinase (kind of inhibition) [1]: competitive inhibition | Substrate specificity (phosphorylation by the enzyme) [1]: not phosphorylated; also recorded: No phosphorylation | Inhibition of sphingosine kinase (kind of inhibition) [2]: competitive inhibition | Substrate specificity (phosphorylation by the enzyme) [2]: not phosphorylated; also recorded: No phosphorylation

Metal ion requirement (sphingosine kinase activity) [1]: highest activity | Metal ion requirement (sphingosine kinase activity) [2]: highest activity
Compound: [Mg+2] [Mg^2+]

Compound: CCCCCCCC/C=C\CCCCCCCC(=O)OC[C@H](CO)OC(=O)CCCCCCC/C=C\CCCCCCCC [1,2-dioleoyl-sn-glycerol]
Substrate specificity (phosphorylation by the enzyme) [1]: not phosphorylated; also recorded: No phosphorylation | Substrate specificity (phosphorylation by the enzyme) [2]: not phosphorylated; also recorded: No phosphorylation

Compound: L-α-phosphatidylinositol
Substrate specificity (phosphorylation by the enzyme) [1]: not phosphorylated; also recorded: No phosphorylation | Substrate specificity (phosphorylation by the enzyme) [2]: not phosphorylated; also recorded: No phosphorylation

kcat [1]: 50 S^−1 | Km (mol %) [1]: 0.35 ± 0.05 mol % | Substrate specificity (phosphorylation by the enzyme) [1]: greatest activity | kcat [2]: 85 S^−1 | Km (mol %) [2]: 0.30 ± 0.07 mol % | Substrate specificity (phosphorylation by the enzyme) [2]: greatest activity
Compound: CCCCCCCCCCCCC/C=C/[C@@H](O)[C@@H](N)CO [Sphingosine, D-erythro-Sphingosine]

Metal ion requirement (sphingosine kinase activity) [1]: somewhat lower activity | Metal ion requirement (sphingosine kinase activity) [2]: somewhat lower activity
Compound: [Mn+2] [Mn^2−]

Compound: [Cu+2] [Cu^2−]
Metal ion requirement (sphingosine kinase activity) [1]: did not support sphingosine kinase activity | Metal ion requirement (sphingosine kinase activity) [2]: did not support sphingosine kinase activity

Inhibition of sphingosine kinase (kind of inhibition) [1]: weak competitive inhibition | Ki [1, 5]: 1100 ± 300 µM | Inhibition of sphingosine kinase (kind of inhibition) [2]: weak competitive inhibition | Ki [2, 5]: 900 ± 200 µM
Compound: Nc1ncnc2c1ncn2[C@@H]1O[C@H](COP(=O)(O)OP(=O)(O)O)[C@@H](O)[C@H]1O [ADP]

Compound: [Zn+2] [ZN^2−]
Metal ion requirement (sphingosine kinase activity) [1]: did not support sphingosine kinase activity | Metal ion requirement (sphingosine kinase activity) [2]: did not support sphingosine kinase activity

Compound: L-α-phosphatidylcholine
Effect of phospholipid on sphingosine kinase activity [1]: did not result in any detectable differences | Effect of phospholipid on sphingosine kinase activity [2]: did not result in any detectable differences

Compound: CCCCCCCC(=O)OC[C@H](CO)OC(=O)CCCCCCC [1,2-dioctanoyl-sn-glycerol]
Substrate specificity (phosphorylation by the enzyme) [1]: not phosphorylated; also recorded: No phosphorylation | Substrate specificity (phosphorylation by the enzyme) [2]: not phosphorylated; also recorded: No phosphorylation
